Data from ChEMBL document CHEMBL1201862, “PubChem BioAssay data set” (2004).
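Each compound was tested at five concentrations against cells in 96-well plates for 48 hours. The concentration for 50% growth inhibition is given as GI50.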 Activity calls are given as the source filed them. Rule as the data show it: active = GI50 up to about 1.1 µM and inactive = higher.

Legend:
Assay in all cases: NCI anticancer screen, dose series, 48 h
786-0 = test system: 786-0
A498 = test system: A498
A549 = test system: A549
ACHN = test system: ACHN
BT-549 = test system: BT-549
CAKI-1 = test system: CAKI-1
CCRF-CEM = test system: CCRF-CEM
COLO 205 = test system: COLO 205
DU-145 = test system: DU-145
EKVX = test system: EKVX
HCC 2998 = test system: HCC 2998
HCT-116 = test system: HCT-116
HCT-15 = test system: HCT-15
HL-60 = test system: HL-60
HOP-62 = test system: HOP-62
HOP-92 = test system: HOP-92
HT-29 = test system: HT-29
Hs-578T = test system: Hs-578T
IGROV-1 = test system: IGROV-1
K562 = test system: K562
KM12 = test system: KM12
LOX IMVI = test system: LOX IMVI
M14 = test system: M14
MCF7 = test system: MCF7
MDA-MB-231 = test system: MDA-MB-231
MDA-MB-435 = test system: MDA-MB-435
MDA-N = test system: MDA-N
MOLT-4 = test system: MOLT-4
Malme-3M = test system: Malme-3M
NCI-H226 = test system: NCI-H226
NCI-H23 = test system: NCI-H23
NCI-H460 = test system: NCI-H460
NCI-H522 = test system: NCI-H522
NCI/ADR-RES = test system: NCI/ADR-RES
OVCAR-3 = test system: OVCAR-3
OVCAR-4 = test system: OVCAR-4
OVCAR-5 = test system: OVCAR-5
OVCAR-8 = test system: OVCAR-8
PC-3 = test system: PC-3
RPMI-8226 = test system: RPMI-8226
RXF 393 = test system: RXF 393
SF-268 = test system: SF-268
SF-295 = test system: SF-295
SF-539 = test system: SF-539
SK-MEL-28 = test system: SK-MEL-28
SK-MEL-5 = test system: SK-MEL-5
SN12C = test system: SN12C
SNB-19 = test system: SNB-19
SNB-75 = test system: SNB-75
SR = test system: SR
SW-620 = test system: SW-620
T47D = test system: T47D
TK-10 = test system: TK-10
U-251 = test system: U-251
UACC-257 = test system: UACC-257
UO-31 = test system: UO-31
SK-MEL-2 = test system: SK-MEL-2
SK-OV-3 = test system: SK-OV-3
UACC-62 = test system: UACC-62

For `Cc1n[nH]c(=O)n1-c1cccnc1`, the GI50 (786-0) was > 100 µM (inactive), the GI50 (A498) was > 100 µM (inactive) and the GI50 (A549) was > 100 µM (inactive). For the same compound, the GI50 (ACHN) was > 100 µM (inactive), the GI50 (BT-549) was > 100 µM (inactive) and the GI50 (CAKI-1) was > 100 µM (inactive). The GI50 (CCRF-CEM) was > 100 µM (inactive), the GI50 (COLO 205) was > 100 µM (inactive) and the GI50 (DU-145) was > 100 µM (inactive). The GI50 (EKVX) was > 100 µM (inactive), the GI50 (HCC 2998) was > 100 µM (inactive) and the GI50 (HCT-116) was > 100 µM (inactive). For the same compound, the GI50 (HCT-15) was greater than 100 µM, the GI50 (HL-60) was > 100 µM (inactive) and the GI50 (HOP-62) was > 100 µM (inactive). The GI50 (HOP-92) was > 100 µM (inactive), the GI50 (HT-29) was > 100 µM (inactive) and the GI50 (Hs-578T) was > 100 µM (inactive). The GI50 (IGROV-1) was > 100 µM (inactive), the GI50 (K562) was > 100 µM (inactive) and the GI50 (KM12) was > 100 µM (inactive). The GI50 (LOX IMVI) was > 100 µM (inactive), the GI50 (M14) was > 100 µM (inactive) and the GI50 (MCF7) was > 100 µM (inactive). For the same compound, the GI50 (MDA-MB-231) was > 100 µM (inactive), the GI50 (MDA-MB-435) was > 100 µM (inactive) and the GI50 (MDA-N) was > 100 µM (inactive). For the same compound, the GI50 (MOLT-4) was > 100 µM (inactive), the GI50 (Malme-3M) was > 100 µM (inactive) and the GI50 (NCI-H226) was > 100 µM (inactive). The GI50 (NCI-H23) was > 100 µM (inactive), the GI50 (NCI-H460) was > 100 µM (inactive) and the GI50 (NCI-H522) was > 100 µM (inactive). For the same compound, the GI50 (NCI/ADR-RES) was > 100 µM (inactive), the GI50 (OVCAR-3) was > 100 µM (inactive) and the GI50 (OVCAR-4) was > 100 µM (inactive). For the same compound, the GI50 (OVCAR-5) was > 100 µM (inactive), the GI50 (OVCAR-8) was > 100 µM (inactive) and the GI50 (PC-3) was > 100 µM (inactive). The GI50 (RPMI-8226) was > 100 µM (inactive), the GI50 (RXF 393) was > 100 µM (inactive) and the GI50 (SF-268) was > 100 µM (inactive). The GI50 (SF-295) was > 100 µM (inactive), the GI50 (SF-539) was > 100 µM (inactive) and the GI50 (SK-MEL-28) was > 100 µM (inactive). For the same compound, the GI50 (SK-MEL-5) was > 100 µM (inactive), the GI50 (SN12C) was > 100 µM (inactive) and the GI50 (SNB-19) was > 100 µM (inactive). For the same compound, the GI50 (SNB-75) was > 100 µM (inactive), the GI50 (SR) was > 100 µM (inactive) and the GI50 (SW-620) was > 100 µM (inactive). For the same compound, the GI50 (T47D) was > 100 µM (inactive), the GI50 (TK-10) was > 100 µM (inactive) and the GI50 (U-251) was > 100 µM (inactive). The GI50 (UACC-257) was > 100 µM (inactive) and the GI50 (UO-31) was > 100 µM (inactive).
With `CC(NC(=O)OCc1ccccc1)NC(=O)OC(C)(C)C` (stereo not given) the GI50 (786-0) was > 100 µM (inactive), the GI50 (A498) was > 100 µM (inactive) and the GI50 (A549) was > 100 µM (inactive). The GI50 (ACHN) was > 100 µM (inactive), the GI50 (BT-549) was > 100 µM (inactive) and the GI50 (CAKI-1) was > 100 µM (inactive). For the same compound, the GI50 (CCRF-CEM) was > 100 µM (inactive), the GI50 (COLO 205) was > 100 µM (inactive) and the GI50 (DU-145) was > 100 µM (inactive). The GI50 (EKVX) was > 100 µM (inactive), the GI50 (HCC 2998) was > 100 µM (inactive) and the GI50 (HCT-116) was > 100 µM (inactive). The GI50 (HCT-15) was greater than 100 µM, the GI50 (HL-60) was > 100 µM (inactive) and the GI50 (HOP-62) was > 100 µM (inactive). The GI50 (HOP-92) was > 100 µM (inactive), the GI50 (HT-29) was > 100 µM (inactive) and the GI50 (Hs-578T) was > 100 µM (inactive). The GI50 (IGROV-1) was > 100 µM (inactive), the GI50 (K562) was > 100 µM (inactive) and the GI50 (KM12) was > 100 µM (inactive). For the same compound, the GI50 (LOX IMVI) was > 100 µM (inactive), the GI50 (M14) was > 100 µM (inactive) and the GI50 (MCF7) was > 100 µM (inactive). The GI50 (MDA-MB-231) was > 100 µM (inactive), the GI50 (MDA-MB-435) was > 100 µM (inactive) and the GI50 (MDA-N) was > 100 µM (inactive). For the same compound, the GI50 (MOLT-4) was 84.9 µM (inactive), the GI50 (Malme-3M) was > 100 µM (inactive) and the GI50 (NCI-H226) was > 100 µM (inactive). For the same compound, the GI50 (NCI-H23) was > 100 µM (inactive), the GI50 (NCI-H460) was 73.6 µM (inactive) and the GI50 (NCI-H522) was > 100 µM (inactive). For the same compound, the GI50 (NCI/ADR-RES) was > 100 µM (inactive), the GI50 (OVCAR-3) was > 100 µM (inactive) and the GI50 (OVCAR-4) was > 100 µM (inactive). For the same compound, the GI50 (OVCAR-5) was > 100 µM (inactive), the GI50 (OVCAR-8) was > 100 µM (inactive) and the GI50 (PC-3) was > 100 µM (inactive). For the same compound, the GI50 (RPMI-8226) was 51.6 µM (inactive), the GI50 (RXF 393) was 1.24 µM (inactive) and the GI50 (SF-268) was > 100 µM (inactive). The GI50 (SF-295) was > 100 µM (inactive), the GI50 (SF-539) was > 100 µM (inactive) and the GI50 (SK-MEL-28) was > 100 µM (inactive). The GI50 (SK-MEL-2) was > 100 µM (inactive), the GI50 (SK-MEL-5) was > 100 µM (inactive) and the GI50 (SK-OV-3) was > 100 µM (inactive). For the same compound, the GI50 (SN12C) was > 100 µM (inactive), the GI50 (SNB-19) was > 100 µM (inactive) and the GI50 (SNB-75) was > 100 µM (inactive). For the same compound, the GI50 (SR) was > 100 µM (inactive), the GI50 (SW-620) was > 100 µM (inactive) and the GI50 (T47D) was > 100 µM (inactive). For the same compound, the GI50 (TK-10) was > 100 µM (inactive), the GI50 (U-251) was > 100 µM (inactive) and the GI50 (UACC-257) was > 100 µM (inactive). For the same compound, the GI50 (UACC-62) was > 100 µM (inactive) and the GI50 (UO-31) was > 100 µM (inactive).
